Results: patent publication US8268823B2, “Medical use of triazine derivatives” (University of Greenwich, priority 2006, dated 2012)
Read-outs that look alike come from different tables or passages of the source.

Legend:
[1] = test system: sodium channel; experiment: veratrine-evoked uptake of [14C]guanidine into rat forebrain synaptosomes ([14C]guanidine flux); format: biochemical; settings: for Hill (uptake of [14C]guanidine): slope
Method: The screening strategy is designed to select compounds with appropriate sodium channel blocking activity and low side effect liability. To this end all compounds are processed through the primary sodium channel assay (veratrine-evoked uptake of [^14C]guanidine into rat forebrain synaptosomes) and IC50 values computed from generated concentration-effect curves.
Synaptosomes (heavy and light mitochondrial fraction containing synaptosomes) were prepared by transferring the forebrain (of known wet weight) to a glass Potter vessel to which 9 volumes ice-cold 0.25M sucrose had been added and homogenising, using a teflon pestle, by 8 ‘up and down strokes’ of a Braun Potter S motor driven homogeniser set to 900 rpm. The resulting homogenate was centrifuged at 1036×g at 4° for 10 min and the supernatant collected. The remaining pellet was resuspended, as above, in fresh ice-cold 0.25M sucrose and the centrifugation step repeated. The supernatant fractions were pooled and centrifuged at 40,000×g (average) at 4° for 15 min and the resulting pellet resuspended in the appropriate assay buffer at a concentration of 20-25 mg wet weight per ml appropriate assay buffer.
Both assays were carried out using 14 ml polypropylene test tubes to which a range of concentrations of the compounds under test were added.
Compounds under test were pre-incubated for 10 min at 30° in incubation buffer (50 mM pH 7.4 HEPES (adjusted to pH 7.4 with Tris base), 130 mM choline chloride, 5.5 mM D-glucose, 0.8 mm MgSO4 and 5 mM KCl) containing 7.5 mg original wet weight of tissue and 100 μg veratrine HCl in a final volume of 0.5 ml. […] A further 2×5 ml of ice-cold wash buffer was added to each tube and the vacuum filtration step repeated. The GF/C glass fibre filters were transferred to minivials and 4 ml Picofluor^40 liquid scintillant added using a Brandel™ deposit/dispense system. Radioactivity was measured using a Beckman Liquid Scintillation Counter.
(§1) Data are presented as mean±sem of number of experiments indicated in brackets.

[2] = target: T1, DiHydroFolate Reductase (DHFR) (Rattus norvegicus, UniProt Q920D2); experiment: inhibition of binding of [3H]methotrexate to rat liver homogenate supernatant; settings: for inhibition at 20 µM: assay concentration 20 μM; for IC50: rat liver supernatant; for inhibition at 495 µM: assay concentration 495 μM
T1 construct: from tissue; host or cells: rat liver homogenate supernatant (47,500 x g)
T1 sequence (Q920D2 1-187): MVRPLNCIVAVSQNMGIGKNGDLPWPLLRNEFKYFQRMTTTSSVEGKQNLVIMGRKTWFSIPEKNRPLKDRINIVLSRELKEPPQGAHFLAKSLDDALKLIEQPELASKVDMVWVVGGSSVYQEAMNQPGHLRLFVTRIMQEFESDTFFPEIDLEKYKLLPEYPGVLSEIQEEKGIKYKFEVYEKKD
Method: All steps were carried out at 4° (or on ice). Freshly dissected rat liver was dissected into 0.25M ice-cold Sucrose and subsequently homogenised (U-turrax) in 50 mM pH 6.0 phosphate buffer (10 ml/g tissue) containing 15 mM Dithiothreitol. The resulting homogenate was centrifuged @ 47,500×g for 20 min and supernatant (filtered through cotton wool to remove fatty lumps) stored @-80° before use (Rothenberg et al).
The binding reaction was stopped by the addition of 50 μl of a charcoal suspension (consisting of charcoal, Bovine Serum Albumin and Dextran present in a weight ratio of 100:4:1 suspended in 50 mM pH 6.0 phosphate buffer. Samples were vortexed, allowed to stand for 2 minutes and charcoal was precipitated by microcentrifugation @ full speed for 5 min. Aliquots of clear supernatant were transferred to counting vials containing liquid scintillant for measurement of radioactivity using Liquid Scintillation Spectroscopy.
Percentage inhibition values were calculated by comparison to this value.
as §1

[3] = Table 3, rat forebrain synaptosomes, read-out: [14C]guanidine flux Mean (IC50: μM)
[4] = read-out: [3H]methotrexate binding Inhibition (% @ assay conc'n)
[5] = read-out: [3H]methotrexate binding Inhibition (% @ assay conc'n), assay concentration 99 μM
[6] = Table 8, read-out: IC50 (μM) (uptake of [14C]guanidine)

N=c1nc(N)c(-c2cccc(Cl)c2Cl)nn1CC(N)=O [Example 11]
IC50 [1, 3]: > 100 µM
inhibition at 20 µM [2, 4]: -3%
inhibition at 99 µM [2, 5]: -3%

Cc1ccc(Cn2nc(-c3cccc(Cl)c3Cl)c(N)nc2=N)cc1 [Example 12, 5(3)-Amino-6-(2,3-dichlorophenyl)-2,3(2,5)-dihydro-3(5)-imino-2-(4-methyl)phenylmethyl-1,2,4-triazine]
IC50 [1, 3]: 4.1 µM
inhibition at 20 µM [2, 4]: -2%
inhibition at 99 µM [2, 5]: -3%

N=c1nc(N)c(-c2cccc(Cl)c2Cl)nn1Cc1ccc(F)cc1 [Example 16, 5(3)-Amino-6-(2,3-dichlorophenyl)-2,3(2,5)-dihydro-3(5)-imino-2-(4-fluoro)phenylmethyl-1,2,4-triazine]
IC50 [1, 3]: 5.1 µM
inhibition at 10 µM ([2]; read-out: [3H]methotrexate binding Inhibition (% @ assay conc'n), assay concentration 10 μM): -3%
inhibition at 99 µM [2, 5]: -3%

N=c1nc(N)c(-c2cccc(Cl)c2Cl)nn1Cc1cccc(Cl)c1 [Example 20, 5(3)-Amino-6-(2,3-dichlorophenyl)-2,3(2,5)-dihydro-3(5)-imino-2-(3-chloro)phenylmethyl-1,2,4-triazine]
IC50 [1, 3]: 3.5 µM
[3H]methotrexate binding Inhibition (% @ assay conc'n) ([2]; assay concentration 9 μM): −4%
[3H]methotrexate binding Inhibition (% @ assay conc'n) ([2]; assay concentration 99 μM): −7%

N=c1nc(N)c(-c2cccc(Cl)c2Cl)nn1Cc1ccc(Cl)cc1 [Example 21, 5(3)-Amino-6-(2,3-dichlorophenyl)-2,3(2,5)-dihydro-3(5)-imino-2-(4-chloro)phenylmethyl-1,2,4-triazine]
IC50 [1, 3]: 6.5 µM
[3H]methotrexate binding Inhibition (% @ assay conc'n) ([2]; assay concentration 10 μM): −4%
[3H]methotrexate binding Inhibition (% @ assay conc'n) ([2]; assay concentration 95 μM): −4%

N=c1nc(N)c(-c2cccc(Cl)c2Cl)nn1Cc1ccccc1Cl [Example 22, 5(3)-Amino-6-(2,3-dichlorophenyl)-2,3(2,5)-dihydro-3(5)-imino-2-(2-chloro)phenylmethyl-1,2,4-triazine]
IC50 [1, 3]: 4.6 µM

N=c1nc(N)c(-c2cccc(Cl)c2Cl)nn1Cc1ccc(C(F)(F)F)cc1 [Example 25, 5(3)-Amino-6-(2,3-dichlorophenyl)-2,3(2,5)-dihydro-3(5)-imino-2-(4-trifluoromethyl)phenylmethyl-1,2,4-triazine]
IC50 [1, 3]: 6.2 µM

N=c1nc(N)c(-c2cccc(Cl)c2Cl)nn1Cc1cccc(C(F)(F)F)c1F [Example 26, 5(3)-Amino-6-(2,3-dichlorophenyl)-2,3(2,5)-dihydro-3(5)-imino-2-(2-fluoro-3-trifluoromethyl)phenylmethyl-1,2,4-triazine]
IC50 [1, 3]: 5.3 µM

N=c1nc(N)c(-c2cccc(Cl)c2Cl)nn1Cc1ccc(C(N)=O)cc1 [Example 27, 4-{[5(3)-Amino-6-(2,3-dichlorophenyl)-2,3-dihydro-3(5)-imino-1,2,4-triazin-2-yl]methyl}benzamide or 5(3)-Amino-6-(2,3-dichlorophenyl)-2,3(2,5)-dihydro-3(5)-imino-2-(3-carboxamido)phenylmethyl-1,2,4-triazine]
IC50 [1, 3]: 234 µM

N=c1nc(N)c(-c2cccc(Cl)c2Cl)nn1Cc1ccc(CO)cc1 [Example 28, 4-{[5(3)-Amino-6-(2,3-dichlorophenyl)-2,3-dihydro-3(5)-imino-1,2,4-triazin-2-yl]methyl}phenylmethanol or 5(3)-Amino-6-(2,3-dichlorophenyl)-2,3(2,5)-dihydro-3(5)-imino-2-(4-hydroxymethyl)phenylmethyl-1,2,4-triazine]
IC50 [1, 3]: 49 µM

Nc1nnc(-c2cccc(F)c2F)c(N)n1 [Example 33, 6-(2,3-difluorophenyl)-1,2,4-triazine-3,5-diamine]
IC50 [1, 3]: > 300 µM
IC50 [2]: 442 ± 5.1 µM

Nc1nnc(-c2cccc(Cl)c2F)c(N)n1 [Example 35]
IC50 [1, 3]: 490 µM
IC50 [2]: 81.3 µM

CC(C)(C)OC(=O)N1CCC(Cn2nc(-c3cccc(Cl)c3Cl)c(N)nc2=N)CC1 [Example 37, 1,1-Dimethylethyl 4-[5(3)-Amino-6-(2,3-dichlorophenyl)-2,3(2,5)-dihydro-3(5)-imino-1,2,4-triazin-2-ylmethyl]piperidine-1-carboxylate or 5(3)-Amino-6-(2,3-dichlorophenyl)-2,3(2,5)-dihydro-3(5)-imino-2-(Bocpiperidin-4-yl)methyl-1,2,4-triazine]
IC50 [1, 3]: 12.9 µM
IC50 [2]: > 300 µM

Nc1nnc(-c2ccccc2)c(N)n1 [Example 43, 3,5-Diamino-6-phenyl-1,2,4-triazine]
IC50 [1, 3]: > 500 µM
inhibition at 50 µM ([2]; read-out: [3H]methotrexate binding Inhibition (% @ assay conc'n), assay concentration 50 μM): 82%

Nc1nnc(-c2ccc(Cl)cc2Cl)c(N)n1 [Example 44, 3,5-Diamino-6-(2,4-dichlorophenyl)-1,2,4-triazine]
IC50 [1, 3]: 603 µM
IC50 [2]: 105 µM

Cn1nc(-c2ccc(Cl)cc2Cl)c(N)nc1=N [Example 45, 5(3)-Amino-6-(2,4-dichlorophenyl)-2,3(2,5)-dihydro-3(5)-imino-2-methyl-1,2,4-triazine methanesulfonate]
IC50 [1, 3]: 87.1 µM
inhibition at 495 µM [2, 4]: -1%

Cn1nc(-c2ccccc2)c(N)nc1=N [Example 46, 5(3)-Amino-6-phenyl-2,3(2,5)-dihydro-3(5)-imino-2-methyl-1,2,4-triazine methanesulfonate]
IC50 [1, 3]: 2290 µM
IC50 [2]: 288 µM

CCn1nc(-c2ccccc2)c(N)nc1=N [Example 47, 5(3)-Amino-6-phenyl-2,3(2,5)-dihydro-3(5)-imino-2-ethyl-1,2,4-triazine methanesulfonate]
IC50 [1, 3]: 676 µM
inhibition at 495 µM [2, 4]: 1%

Cn1nc(-c2cc(Cl)ccc2Cl)c(N)nc1=N [Example 48, 5(3)-Amino-6-(2,5-dichlorophenyl)-2,3(2,5)-dihydro-3(5)-imino-2-methyl-1,2,4-triazine methanesulfonate]
IC50 [1, 3]: 28.2 µM
IC50 [2]: 251 µM

CCn1nc(-c2cc(Cl)ccc2Cl)c(N)nc1=N [Example 49, 5(3)-Amino-6-(2,5-dichlorophenyl)-2,3(2,5)-dihydro-3(5)-imino-2-ethyl-1,2,4-triazine methanesulfonate]
IC50 [1, 3]: 20.9 µM
IC50 [2]: 95 µM

N=c1nc(N)c(-c2cccc(Cl)c2Cl)nn1CCF [Example 52, 5(3)-Amino-6-(2,3-dichlorophenyl)-2,3(2,5)-dihydro-3(5)-imino-2-(2-fluoroethyl)-1,2,4-triazine methanesulfonate]
pIC50 (uptake of [14C]guanidine) ([1]; Table 8): 5.00 ± 0.08
IC50 [1, 6]: 10 µM
Hill (uptake of [14C]guanidine) ([1]; Table 8): 0.74

Cn1nc(-c2cc(Cl)cc(Cl)c2)c(N)nc1=N [Example 53, 5(3)-Amino-6-(3,5-dichlorophenyl)-2,3(2,5)-dihydro-3(5)-imino-2-methyl-1,2,4-triazine methanesulfonate]
pIC50 (uptake of [14C]guanidine) ([1]; Table 8): 4.34 ± 0.16
IC50 [1, 6]: 45.7 µM
Hill (uptake of [14C]guanidine) ([1]; Table 8): 0.73

CCn1nc(-c2cc(Cl)cc(Cl)c2)c(N)nc1=N [Example 54, 5(3)-Amino-6-(3,5-dichlorophenyl)-2,3(2,5)-dihydro-3(5)-imino-2-ethyl-1,2,4-triazine methanesulfonate]
pIC50 (uptake of [14C]guanidine) ([1]; Table 8): 4.73 ± 0.11
IC50 [1, 6]: 18.6 µM
Hill (uptake of [14C]guanidine) ([1]; Table 8): 0.76

N=c1nc(N)c(-c2cc(Cl)cc(Cl)c2Cl)nn1CCF [Example 55, 5(3)-Amino-6-(2,3,5-trichlorophenyl)-2,3(2,5)-dihydro-3(5)-imino-2-(2-fluoroethyl)-1,2,4-triazine methanesulfonate]
pIC50 (uptake of [14C]guanidine) ([1]; Table 8): 5.20 ± 0.05
IC50 [1, 6]: 6.31 µM
Hill (uptake of [14C]guanidine) ([1]; Table 8): 0.79

N=c1nc(N)c(-c2cc(Cl)cc(Cl)c2Cl)nn1CCC(F)(F)F [Example 56, 5(3)-Amino-6-(2,3,5-trichlorophenyl)-2,3(2,5)-dihydro-3(5)-imino-2-(3,3,3-trifluoropropyl)-1,2,4-triazine methanesulfonate]
pIC50 (uptake of [14C]guanidine) ([1]; Table 8): 2.90 ± 0.20
IC50 [1, 6]: 1260 µM
Hill (uptake of [14C]guanidine) ([1]; Table 8): 0.83
